Data reported in ChEMBL document CHEMBL3044817, “Antifeedant and mosquitocidal compounds from Delphinium x cultorum cv. Magic fountains flowers” (J Agric Food Chem, 2000).
The source made the active and inactive calls. No cut-off for these calls is given here.

Test system: Helicoverpa zea
Assay: Antifeedant activity against Helicoverpa zea (corn earworm) at 250 mg/ml at 28 degC day/24 degC night measured after 6 days
Format: functional, organism-based

## O=C(O)c1ccc(O)cc1
  Activity: inactive

## Oc1ccc(C(O)c2ccc(O)cc2)cc1
  Activity: inactive
